Source: PubChem BioAssay AID2060623 (Molecular Pharmacology Branch, DTP, NCI, 2025)

Test system: 227483-062-R1-J1-PDC complex spheroids with HUVEC/MSC, viability
Assay: Anticancer human tumor 227483-062-R1-J1-PDC patient-derived pancreatic carcinoma cell line growth inhibition [CLK]
Conditions: for IC50: curve of first compound; for viability, T/C: stronger effect = lower value
Procedure, shortened: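 Patient-derived tumor cells grown as complex spheroids with HUVEC endothelial cells and mesenchymal stem cells, treated with drug combinations. Concentrations descend in half-log steps from near clinical Cmax, or from 10 microM if Cmax unknown.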

[1] = second compound 0.0316 µM, first compound 0.0316 µM
[2] = second compound 0.0316 µM, first compound 0.1 µM
[3] = second compound 0.0316 µM, first compound 0.316 µM
[4] = second compound 0.0316 µM, first compound 1 µM
[5] = second compound 0.0316 µM, first compound 3.16 µM
[6] = second compound 0.0316 µM, first compound 10 µM
[7] = second compound 0.1 µM, first compound 0.0316 µM
[8] = second compound 0.1 µM, first compound 0.1 µM
[9] = second compound 0.1 µM, first compound 0.316 µM
[10] = second compound 0.1 µM, first compound 1 µM
[11] = second compound 0.1 µM, first compound 3.16 µM
[12] = second compound 0.1 µM, first compound 10 µM
[13] = second compound 0.316 µM, first compound 0.0316 µM
[14] = second compound 0.316 µM, first compound 0.1 µM
[15] = second compound 0.316 µM, first compound 0.316 µM
[16] = second compound 0.316 µM, first compound 1 µM
[17] = second compound 0.316 µM, first compound 3.16 µM
[18] = second compound 0.316 µM, first compound 10 µM
[19] = second compound 1 µM, first compound 0.0316 µM
[20] = second compound 1 µM, first compound 0.1 µM
[21] = second compound 1 µM, first compound 0.316 µM
[22] = second compound 1 µM, first compound 1 µM
[23] = second compound 1 µM, first compound 3.16 µM
[24] = second compound 1 µM, first compound 10 µM
[25] = second compound 3.16 µM, first compound 0.0316 µM
[26] = second compound 3.16 µM, first compound 0.1 µM
[27] = second compound 3.16 µM, first compound 0.316 µM
[28] = second compound 3.16 µM, first compound 1 µM
[29] = second compound 3.16 µM, first compound 3.16 µM
[30] = second compound 3.16 µM, first compound 10 µM
[31] = second compound 10 µM, first compound 0.0316 µM
[32] = second compound 10 µM, first compound 0.1 µM
[33] = second compound 10 µM, first compound 0.316 µM
[34] = second compound 10 µM, first compound 1 µM
[35] = second compound 10 µM, first compound 3.16 µM
[36] = second compound 10 µM, first compound 10 µM
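Further: spheroids exposed to compounds for seven days before readout.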
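Wherever viability, T/C is given: percent of DMSO vehicle control luminescence as 100% viability.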

SMILES: O=C(c1cc(Cc2n[nH]c(=O)c3ccccc23)ccc1F)N1CCN(C(=O)C2CC2)CC1 + CNC(=O)c1ccc(Nc2nc(OC3CCCC3)c3c(-c4ccc5nc(C)oc5c4)c[nH]c3n2)c(OC)c1
- IC50 (second compound 0.0316 µM): > 10 µM
- IC50 (second compound 0.1 µM): > 10 µM
- IC50 (second compound 0.316 µM): > 10 µM
- IC50 (second compound 1 µM): > 10 µM
- IC50 (second compound 3.16 µM): 0.0449 µM
- IC50 (second compound 10 µM): < 0.0316 µM
- viability, T/C [1]: 86.9%
- viability, T/C [2]: 84.9%
- viability, T/C [3]: 119%
- viability, T/C [4]: 93.1%
- viability, T/C [5]: 100%
- viability, T/C [6]: 98.4%
- viability, T/C [7]: 86.1%
- viability, T/C [8]: 117%
- viability, T/C [9]: 89.3%
- viability, T/C [10]: 89.5%
- viability, T/C [11]: 91.5%
- viability, T/C [12]: 91.3%
- viability, T/C [13]: 86.8%
- viability, T/C [14]: 92.9%
- viability, T/C [15]: 78.5%
- viability, T/C [16]: 89.3%
- viability, T/C [17]: 95.5%
- viability, T/C [18]: 99%
- viability, T/C [19]: 63.3%
- viability, T/C [20]: 60.9%
- viability, T/C [21]: 65.4%
- viability, T/C [22]: 61.1%
- viability, T/C [23]: 80.1%
- viability, T/C [24]: 66.3%
- viability, T/C [25]: 50.9%
- viability, T/C [26]: 54.5%
- viability, T/C [27]: 40.5%
- viability, T/C [28]: 48.9%
- viability, T/C [29]: 50.3%
- viability, T/C [30]: 47.7%
- viability, T/C [31]: 37%
- viability, T/C [32]: 34%
- viability, T/C [33]: 35.3%
- viability, T/C [34]: 42.1%
- viability, T/C [35]: 42.3%
- viability, T/C [36]: 39%

SMILES: O=c1[nH]cc(F)c(=O)[nH]1 + CNC(=O)c1ccc(Nc2nc(OC3CCCC3)c3c(-c4ccc5nc(C)oc5c4)c[nH]c3n2)c(OC)c1
- IC50 (second compound 0.0316 µM): 1.74 µM
- IC50 (second compound 0.1 µM): 1.02 µM
- IC50 (second compound 0.316 µM): 0.931 µM
- IC50 (second compound 1 µM): 0.32 µM
- IC50 (second compound 3.16 µM): < 0.0316 µM
- IC50 (second compound 10 µM): < 0.0316 µM
- viability, T/C [1]: 94.6%
- viability, T/C [2]: 88.3%
- viability, T/C [3]: 108%
- viability, T/C [4]: 62.9%
- viability, T/C [5]: 41%
- viability, T/C [6]: 31.2%
- viability, T/C [7]: 104%
- viability, T/C [8]: 93.8%
- viability, T/C [9]: 73.8%
- viability, T/C [10]: 50.1%
- viability, T/C [11]: 38.4%
- viability, T/C [12]: 36%
- viability, T/C [13]: 71.4%
- viability, T/C [14]: 91.7%
- viability, T/C [15]: 66.5%
- viability, T/C [16]: 47.5%
- viability, T/C [17]: 37.1%
- viability, T/C [18]: 24.5%
- viability, T/C [19]: 80.6%
- viability, T/C [20]: 56.2%
- viability, T/C [21]: 60.5%
- viability, T/C [22]: 32.5%
- viability, T/C [23]: 22.4%
- viability, T/C [24]: 18.7%
- viability, T/C [25]: 46.7%
- viability, T/C [26]: 46.9%
- viability, T/C [27]: 41.2%
- viability, T/C [28]: 26.4%
- viability, T/C [29]: 18.1%
- viability, T/C [30]: 13.8%
- viability, T/C [31]: 44.8%
- viability, T/C [32]: 39%
- viability, T/C [33]: 33.1%
- viability, T/C [34]: 23.5%
- viability, T/C [35]: 18.9%
- viability, T/C [36]: 14.6%
